Measurements: ChEMBL document CHEMBL1629671, “Activity of posaconazole and other antifungal agents against Mucorales strains identified by sequencing of internal transcribed spacers” (2009)
≈ marks a conversion by molar mass, not a printed value.

Columns and labels:
Assay type in all cases: functional
Apophysomyces [1] = assay: Antifungal activity against Apophysomyces spp. after 24 hrs by microdilution method
Lichtheimia corymbifera [2] = assay: Antifungal activity against Mycocladus corymbifer after 48 hrs by microdilution method
Lichtheimia corymbifera [3] = assay: Antifungal activity against Mycocladus corymbifer after 24 hrs by microdilution method
[4] = Antifungal activity against Rhizopus microsporus after 24 hrs by microdilution method
Mucor circinelloides [5] = assay: Antifungal activity against Mucor circinelloides after 48 hrs by microdilution method
Cunninghamella [6] = assay: Antifungal activity against Cunninghamella spp. after 48 hrs by microdilution method
[7] = system: Cunninghamella bertholletiae; assay: Antifungal activity against Cunninghamella bertholletiae after 24 hrs by microdilution method
Mucor circinelloides [8] = assay: Antifungal activity against Mucor circinelloides after 24 hrs by microdilution method
Cunninghamella [9] = assay: Antifungal activity against Cunninghamella spp. after 24 hrs by microdilution method
[10] = system: Cunninghamella bertholletiae; assay: Antifungal activity against Cunninghamella bertholletiae after 48 hrs by microdilution method
Rhizopus arrhizus [11] = assay: Antifungal activity against Rhizopus oryzae after 24 hrs by microdilution method
[12] = Antifungal activity against Rhizomucor pusillus after 48 hrs by microdilution method
Actinomucor [13] = assay: Antifungal activity against Actinomucor spp. after 24 hrs by microdilution method
Actinomucor [14] = assay: Antifungal activity against Actinomucor spp. after 48 hrs by microdilution method
Apophysomyces [15] = assay: Antifungal activity against Apophysomyces spp. after 48 hrs by microdilution method
[16] = Antifungal activity against Rhizomucor pusillus after 24 hrs by microdilution method
[17] = Antifungal activity against Rhizomucor variabilis after 24 hrs by microdilution method
Rhizopus arrhizus [18] = assay: Antifungal activity against Rhizopus oryzae after 48 hrs by microdilution method
[19] = Antifungal activity against Rhizopus microsporus after 48 hrs by microdilution method
[20] = Antifungal activity against Rhizomucor variabilis after 48 hrs by microdilution method

| Structure (SMILES) | MIC (Apophysomyces [1]) [mg/L] | MIC (Lichtheimia corymbifera [2]) [mg/L] | MIC (Lichtheimia corymbifera [3]) [mg/L] | MIC [4] [mg/L] | MIC (Mucor circinelloides [5]) [mg/L] | MIC (Cunninghamella [6]) [mg/L] | MIC [7] [mg/L] | MIC (Mucor circinelloides [8]) [mg/L] | MIC (Cunninghamella [9]) [mg/L] | MIC [10] [mg/L] | MIC (Rhizopus arrhizus [11]) [mg/L] | MIC [12] [mg/L] | MIC (Actinomucor [13]) [mg/L] | MIC (Actinomucor [14]) [mg/L] | MIC (Apophysomyces [15]) [mg/L] | MIC [16] [mg/L] | MIC [17] [mg/L] | MIC (Rhizopus arrhizus [18]) [mg/L] | MIC [19] [mg/L] | MIC [20] [mg/L] |
| --- | --- | --- | --- | --- | --- | --- | --- | --- | --- | --- | --- | --- | --- | --- | --- | --- | --- | --- | --- | --- |
| C[C@@H](c1nc(-c2ccc(C#N)cc2)cs1)[C@](O)(Cn1cncn1)c1ccc(F)cc1F [RAVUCONAZOLE] | 2 (≈ 4.57 µM) | 2 (≈ 4.57 µM) | 1.22 (≈ 2.79 µM) | 0.89 (≈ 2.03 µM) | 13.1 (≈ 30 µM) | 8 (≈ 18.3 µM) | 8 (≈ 18.3 µM) | 11.9 (≈ 27.2 µM) | 1 (≈ 2.29 µM) | 12.1 (≈ 27.7 µM) | 1 (≈ 2.29 µM) | 0.87 (≈ 1.99 µM) | 0.25 (≈ 0.571 µM) | 0.5 (≈ 1.14 µM) | 4 (≈ 9.14 µM) | 0.66 (≈ 1.51 µM) | 8 (≈ 18.3 µM) | 1.32 (≈ 3.02 µM) | 1.78 (≈ 4.07 µM) | 16 (≈ 36.6 µM) |
| CN(C/C=C/C#CC(C)(C)C)Cc1cccc2ccccc12 [TERBINAFINE] | 2 (≈ 6.86 µM) | 1 (≈ 3.43 µM) | 0.5 (≈ 1.72 µM) | 0.71 (≈ 2.44 µM) | 32 (≈ 110 µM) | 0.18 (≈ 0.618 µM) | 0.4 (≈ 1.37 µM) | 21.5 (≈ 73.9 µM) | 0.13 (≈ 0.446 µM) | 0.49 (≈ 1.68 µM) | 24.2 (≈ 83.2 µM) | 0.33 (≈ 1.13 µM) | 0.125 (≈ 0.429 µM) | 0.36 (≈ 1.24 µM) | 2 (≈ 6.86 µM) | 0.22 (≈ 0.755 µM) | 32 (≈ 110 µM) | 32 (≈ 110 µM) | 1.41 (≈ 4.84 µM) | 32 (≈ 110 µM) |
| C[C@@H]1[C@H](O)[C@@H](C)/C=C/C=C/C=C/C=C/C=C/C=C/C=C/[C@H](O[C@@H]2O[C@H](C)[C@@H](O)[C@H](N)[C@@H]2O)C[C@@H]2O[C@](O)(C[C@@H](O)C[C@@H](O)[C@H](O)CC[C@@H](O)C[C@@H](O)CC(=O)O[C@H]1C)C[C@H](O)[C@H]2C(=O)O [AMPHOTERICIN B] | 2 (≈ 2.16 µM) | 0.14 (≈ 0.152 µM) | 0.08 (≈ 0.0866 µM) | 0.45 (≈ 0.487 µM) | 0.15 (≈ 0.162 µM) | 4 (≈ 4.33 µM) | 7.13 (≈ 7.72 µM) | 0.05 (≈ 0.0541 µM) | 2.83 (≈ 3.06 µM) | 7.13 (≈ 7.72 µM) | 0.29 (≈ 0.314 µM) | 0.1 (≈ 0.108 µM) | 1 (≈ 1.08 µM) | 1.41 (≈ 1.53 µM) | 8 (≈ 8.66 µM) | 0.05 (≈ 0.0541 µM) | 0.03 (≈ 0.0325 µM) | 1 (≈ 1.08 µM) | 0.89 (≈ 0.963 µM) | 0.09 (≈ 0.0974 µM) |
| C[C@@H](c1ncncc1F)[C@](O)(Cn1cncn1)c1ccc(F)cc1F [VORICONAZOLE] | 16 (≈ 45.8 µM) | 16 (≈ 45.8 µM) | 14.5 (≈ 41.5 µM) | 8 (≈ 22.9 µM) | 16 (≈ 45.8 µM) | 16 (≈ 45.8 µM) | 16 (≈ 45.8 µM) | 16 (≈ 45.8 µM) | 16 (≈ 45.8 µM) | 16 (≈ 45.8 µM) | 12.1 (≈ 34.7 µM) | 6.06 (≈ 17.3 µM) | 16 (≈ 45.8 µM) | 22.6 (≈ 64.8 µM) | 16 (≈ 45.8 µM) | 5.28 (≈ 15.1 µM) | 16 (≈ 45.8 µM) | 16 (≈ 45.8 µM) | 8.98 (≈ 25.7 µM) | 16 (≈ 45.8 µM) |
| CC[C@@H]([C@H](C)O)n1ncn(-c2ccc(N3CCN(c4ccc(OC[C@@H]5CO[C@@](Cn6cncn6)(c6ccc(F)cc6F)C5)cc4)CC3)cc2)c1=O [POSACONAZOLE] | 0.5 (≈ 0.713 µM) | 0.67 (≈ 0.956 µM) | 0.41 (≈ 0.585 µM) | 0.79 (≈ 1.13 µM) | 2.69 (≈ 3.84 µM) | 4 (≈ 5.71 µM) | 2.3 (≈ 3.28 µM) | 1.49 (≈ 2.13 µM) | 0.25 (≈ 0.357 µM) | 4.59 (≈ 6.55 µM) | 1.15 (≈ 1.64 µM) | 0.28 (≈ 0.4 µM) | 0.06 (≈ 0.0856 µM) | 0.125 (≈ 0.178 µM) | 1 (≈ 1.43 µM) | 0.16 (≈ 0.228 µM) | 1.41 (≈ 2.01 µM) | 2 (≈ 2.85 µM) | 3.17 (≈ 4.52 µM) | 16 (≈ 22.8 µM) |
| CCC(C)n1ncn(-c2ccc(N3CCN(c4ccc(OCC5COC(Cn6cncn6)(c6ccc(Cl)cc6Cl)O5)cc4)CC3)cc2)c1=O (stereo not given) [ITRACONAZOLE] | 16 (≈ 22.7 µM) | 1.35 (≈ 1.91 µM) | 0.68 (≈ 0.964 µM) | 1.59 (≈ 2.25 µM) | 16 (≈ 22.7 µM) | 4 (≈ 5.67 µM) | 3.17 (≈ 4.49 µM) | 11.9 (≈ 16.8 µM) | 0.5 (≈ 0.709 µM) | 10.1 (≈ 14.3 µM) | 4 (≈ 5.67 µM) | 0.44 (≈ 0.624 µM) | 2 (≈ 2.83 µM) | 2 (≈ 2.83 µM) | 16 (≈ 22.7 µM) | 0.29 (≈ 0.411 µM) | 16 (≈ 22.7 µM) | 6.96 (≈ 9.86 µM) | 3.56 (≈ 5.05 µM) | 16 (≈ 22.7 µM) |
